Laboratory results from BigSolDB 2.1.

NC(=O)C[C@H](NC(=O)OCc1ccccc1)C(=O)O
solubility (mole fraction)
Settings	283.15 K	288.15 K	293.15 K	298.15 K	303.15 K	308.15 K	313.15 K	318.15 K	323.15 K
in 1,4-dioxane	–	0.00212	0.00241	0.00271	0.00317	0.00358	0.00419	0.0049	0.0057
in 2-butanone	0.000329	0.000433	0.000544	0.000652	0.000745	0.00086	0.001	0.00112	0.00128
in acetone	0.000747	0.000777	0.000832	0.000971	0.00112	0.00136	0.00161	0.00194	0.00262
in acetonitrile	7.48e-05	0.000149	0.000221	0.000305	0.000395	0.000498	0.000599	0.00069	0.000775
in ethanol	0.000263	0.000463	0.000753	0.00114	0.00161	0.00213	0.00265	0.00311	0.00347
in isobutanol	4.91e-05	6.83e-05	9.5e-05	0.000157	0.000269	0.000403	0.000581	0.000831	0.00107
in isopropanol	8.58e-05	0.000238	0.000431	0.000625	0.000834	0.00105	0.00127	0.00153	0.00177
in methanol	0.00174	0.00188	0.00233	0.00274	0.00344	0.00413	0.00524	0.00647	0.00801
in n-butanol	0.00023	0.000293	0.000361	0.000476	0.000644	0.000846	0.0011	0.00135	0.00171
in n-pentanol	0.000182	0.000221	0.00027	0.000325	0.000415	0.000535	0.000652	0.000829	0.00104
in n-propanol	0.000285	0.000339	0.000439	0.000576	0.000737	0.000887	0.00116	0.00142	0.00175
in water	2.14e-05	2.75e-05	4.02e-05	5.55e-05	7.33e-05	9.44e-05	0.000121	0.000152	0.000198
